The values that follow come from US12043602B2, “Fendiline derivatives” (The Board of Regents of the University of Texas System, priority 2019, dated 2024).

In series [1] the test system is BxPC-3 (WT) pancreatic tumor cells. In words: CyQUANT proliferation assay. The format is cell-based. To be noted: Homo sapiens. On the procedure: (§1) Madine Darby Canine Kidney epithelial cells (MDCK) stably co-expressing mGFP-tagged full length oncogenic mutant K-Ras (GFP—K-RASG12V) or mGFP-LactC2 (peptide probe for phosphatidylserine) and mCherry-tagged to the amino acids 179-189 of H-RasC181S, C184S (mCherry-CAAX, localizes primarily to endomembranes) were grown in DMEM-high glucose/sodium pyruvate/10% FBS. The medium was supplemented with 1× Penicillin/Streptomycin for fluorescence microscopy assays, to avoid any microbial contamination from the test compounds added. KLE and Hec50 cells were maintained in DMEM-F-12 medium supplemented with 10% FBS. Hec-1A and Hec-1B cells were grown in McCoy's 5a medium supplemented with 10% FBS. ESS-1 cells were grown in RPMI 1640 medium supplemented with 20% FBS. MPanc96 cells were grown in DMEM supplemented with 10% FBS, MiaPaCa-2 cells in DMEM supplemented with 10% FBS and 2.5% horse serum and all other cell lines were grown in RPMI 1640 supplemented with 10% FBS. All cancer cell media were supplemented with ×Penicillin/Streptomycin. All cell lines were grown at 37° C. with 5% CO2.
(§2) Cells were seeded in 96-well plates. After 24 h, fresh growth medium supplemented with 0.1% vehicle (DMSO), or various concentrations of drugs was added and cells were grown for 72 h. Cell numbers were quantified using the CyQUANT® Cell Proliferation Assay Kit (Molecular Probes, Life Technologies), according to the manufacturer's protocol. Fluorescence measurement was used as a measure of live cell number.

In series [2] the test system is Ishikawa (WT) endometrial tumor cells. Nature of the series: CyQUANT proliferation assay. Further details: key to IC50 proliferation Ishikawa (WT): NE—Not efficacious. The format is cell-based. The settings on record: for IC50: Homo sapiens, Ishikawa. On the procedure:
as §1, §2

The test system of a further series is blood vessels in tumors. Nature of the series: Blood vessel lumen area in tumor sections. Details: species or system nu/nu mice. To be noted: mouse, in vivo. Here is the method:
FIG. 8A-E. (A) Nu/nu mice implanted with MiaPaCa-2 tumors were treated with vehicle (DMSO) or compounds intraperitoneally and tumor sizes were measured with an external caliper every 3-4 days. (B) Tumor sections were stained with GFP-Lys. (C) Tumor sections were stained with antibodies against pERK. (D) Tumor sections were stained with cleaved caspase 3. (E) Blood vessel lumen area was also measured in tumor sections.
Immunohistochemistry. 4-5 μm sections were deparaffinized, rehydrated, and treated with 10 mM sodium citrate for heat induced antigen retrieval. After quenching endogenous peroxidase, and blocking with 2.5% normal goat serum (Vector Laboratories S-1012), sections were incubated overnight at 4° C. with primary antibody diluted in blocking solution as recommended by manufacturer (Cell Signaling). Controls were incubated with diluted normal rabbit IgG. After incubation with biotinylated secondary antibody diluted 1:250 in blocking serum for 45 min at rt, sections were incubated with VECTASTAIN ABC reagent for 30 min, and for development of the DAB chromogen the Quanto substrate was used. Slides were counter stained with Hematoxylin. Five fields per stained section per xenograft were photographed at 10X. CC3+ and pERK+ area and number of events per field were quantitated via automated image analysis (NIS Elements BR analysis ver. 4.13.04). Vessel number and lumen area per field used the same software with manual settings to trace vessel wall contours. Antibodies used are as follows: CC3: Cell Signaling #9661, use at 1:300. (Cleaved Caspase-3 (Asp175) Antibody. Rabbit polyclonal. pERK: Cell Signaling #4370: Phospho-p44/42 MAPK (Erk1/2) (Thr202/Tyr204) (D13.14.4E) XP Rabbit mAB. CD31 (PECAM-1) (D8V9E) XP Rabbit mAB (Cell signal # (Cell signal #77699). Normal rabbit IgG: Santa Cruz #sc-3888. Concentration is 50 μg/mL or 50 ng/μL. Prepared with 5 μg in 200 μL blocking solution. Goat Anti-Rabbit IgG Biotin Conjugate: Calbiochem #OS03B, Concentration=1.2 mg/mL. Recommended to be used for IHC at 1 μg/mL.

In series [3] the test system is KLE (WT) endometrial tumor cells. Nature of the series: CyQUANT proliferation assay. It is filed as cell-based. Further details: key: NE—Not efficacious. The settings on record: 72 h. On the procedure:
as §1, §2

Series [4] concerns NCI H1975 (WT) lung tumor cells. Nature of the series: CyQUANT proliferation assay. The format is cell-based. Further details: key to IC50 proliferation NCI H1975 (WT): NE—Not efficacious. The settings on record: for IC50 proliferation NCI H1975 (WT): 72 h; for IC50: Homo sapiens, NCI-H1975, Table 11, lung. On the procedure:
as §1, §2

The subject of series [5] is sphingomyelin (SM) in MiaPaCa-2 tumor sections. Nature of the series: Lysenin (GFP-Lys) staining of tumor sections. It is filed as in vivo, nu/nu mice. The settings on record: 12.5 mg/kg. Here is the method:
Lysenin Staining of Tumor Sections. To label intracellular SM, 3 μm thick cryosections, fixed in 4% paraformaldehyde and quenched in 0.1 M NH4Cl, were permeabilized with 0.5% saponin before overnight incubation (4° C.) with MBP-GFP Lysenin (50 μg/mL) in PBS with 0.5% saponin containing DAPI (5 ng/mL). Samples mounted in FluorSave were photographed in the Nikon AIR Confocal Laser Microscope. GFP-Lysenin binding was quantitated using NIS
Elements BR analysis ver. 4.13.04. The average value obtained in the negative control pictures (background) was subtracted from each of the GFP pictures (n=20).
To determine if the reduction in tumor growth elicited by the compounds were mediated by inhibition of ASM, we stained the tissue sections for SM using a non-toxic recombinant fragment of lysenin tagged with GFP (GFP-Lys). In DMSO-treated tumor sections, weak GFP-Lys staining was observed. […] We also observed that the blood vessels were dilated in compound 6 treated tumors, whereas the blood vessel diameters were not changed in compound 12h (NY0331) and 22 (NY0335) treated tumors (FIG. 8E).

Series [6] deals with MiaPaCa-2 (Mut) pancreatic tumor cells. In words: CyQUANT proliferation assay. The format is cell-based. The settings on record: Homo sapiens. Here is the method: as §1, §2
Series [7] deals with NCI H522 (WT) lung tumor cells. Nature of the series: CyQUANT proliferation assay. It is filed as cell-based. To be noted: Homo sapiens. On the procedure:
as §1, §2

Series [8] concerns HPAC (Mut) pancreatic tumor cells. Nature of the series: CyQUANT proliferation assay. The settings on record: Homo sapiens, HPAC, 72 h. It is filed as cell-based. On the procedure: as §1, §2
Series [9] has as its system MDCK cells co-expressing GFP-K-RASG12V and mCherry-CAAX. Nature of the series: Cytotoxicity in mislocalization screen (death of all cells in well). The settings on record: drug caused death of all cells in well at 30 μM.
Where [10] appears, read: BXPC-3, 72 h, read-out: IC50 proliferation BxPC-3 (WT).
[11] abbreviates: BXPC-3, Table 11, pancreatic, read-out: IC50 (μM) BxPC-3 (WT).
[12] abbreviates: Table 11, endometrial, read-out: IC50 (μM) Ishikawa (WT).
The mark [13] stands for this setting: MIA PaCa-2, 72 h, read-out: IC50 proliferation MiaPaCa-2 (Mut).
Where [14] appears, read: MIA PaCa-2, Table 11, pancreatic, read-out: IC50 (μM) MiaPaCa-2 (Mut).
Setting [15] is: NCI-H522, 72 h, read-out: IC50 proliferation NCI H522 (WT).
The mark [16] stands for this setting: NCI-H522, Table 11, lung, read-out: IC50 (μM) NCI H522 (WT).

Entries after “also recorded” stand apart in the source; their conditions may differ. Like-named read-outs stand apart in the source and are kept apart here.

As for `CC(NCCC(c1ccccc1)c1ccccc1)c1ccccc1` (centres unmarked) [Fendiline], the IC50 in series [1] (setting [10]) is 28.6 µM; in series [1] (setting [11]) it was 28.6 ± 5.9 µM; in series [2] (setting [12]) it was above 30 µM; in [4], above 30 µM; in [6] (setting [13]), 9.17 µM; in [6] (setting [14]) it was 9.2 ± 0.6 µM. In addition, the IC50 was 29.6 µM in series [7] (setting [15]) and 29.6 ± 1.2 µM in [7] (setting [16]). Moreover, in series [2] (72 h), the “IC50 proliferation Ishikawa (WT)” value was “NE”. The “blood vessel dilation / vasodilatory effect in tumors” value with blood vessels in tumors is “dilated”. The “IC50 proliferation KLE (WT)” value in [3] was “NE”. Also, the “IC50 proliferation NCI H1975 (WT)” value in series [4] is “NE”. The “GFP-Lys staining (SM) of tumor sections” value in series [5] is recorded as “significantly increased”.
`COc1ccc([C@@H](C)N(CC=C(c2ccccc2)c2ccccc2)CCN2CCN(C)CC2)cc1` [NY0244, (R)-N-(1-(4-methoxyphenyl)ethyl)-N-(2-(4-methylpiperazin-1-yl)ethyl)-3,3-diphenylprop-2-en-1-amine]: the IC50 in series [1] (setting [10]) was 5.73 µM; in [1] (setting [11]), 5.7 µM; in series [8], 5.55 µM; in series [2] (setting [12]) it was above 30 µM; in [4] it was above 30 µM; in series [6] (setting [13]), 3.03 µM. The IC50 in series [6] (setting [14]) was 3 µM; in [7] (setting [15]) it was 28.2 µM; in series [7] (setting [16]) it was 28.2 µM. The “Cytotoxic at 30 μM” value in [9] is given as “Yes”. Moreover, the “IC50 proliferation Ishikawa (WT)” value in series [2] (72 h) is on record as “NE”. In series [3], the “IC50 proliferation KLE (WT)” value is “NE”. Further, the “IC50 proliferation NCI H1975 (WT)” value in series [4] is given as “NE”.
For `COc1ccc([C@@H](C)N(CC=C(c2ccccc2)c2ccccc2)CCN2CCCC2)cc1` [NY0331, (R)-N-(1-(4-methoxyphenyl)ethyl)-3,3-diphenyl-N-(2-(pyrrolidin-1-yl)ethyl)prop-2-en-1-amine], the IC50 in series [8] was determined as 5.15 µM; in [6] (setting [13]), 3.36 µM; in [6] (setting [14]), 3.1 µM. Further, the “Cytotoxic at 30 μM” value in series [9] is listed as “Yes”. Further, the “blood vessel dilation / vasodilatory effect in tumors” value in the series on blood vessels in tumors (listed as 12h) is “no vasodilatory effects; also recorded: not changed”. In [5], the “GFP-Lys staining (SM) of tumor sections” value is given as “significantly increased”.
For `COc1ccc([C@@H](C)N(CC=C(c2ccccc2)c2ccccc2)CCCN2CCN(C)CC2)cc1` [NY0335, (R)-N-(1-(4-methoxyphenyl)ethyl)-N-(3-(4-methylpiperazin-1-yl)propyl)-3,3-diphenylprop-2-en-1-amine], the IC50 in series [1] (setting [10]) was 5.34 µM; in series [1] (setting [11]), 5.3 µM; in series [8], 5.81 µM; in series [2] (72 h, read-out: IC50 proliferation Ishikawa (WT)), 11 µM; in series [2] (setting [12]) it was 11 µM; in series [4], above 30 µM. The IC50 in series [6] (setting [13]) was found to be 2.79 µM; in [6] (setting [14]) it was 2.8 µM; in series [7] (setting [15]), 23.5 µM; in [7] (setting [16]), 23.5 ± 3.2 µM. Also, in series [9], the “Cytotoxic at 30 μM” value is “Yes”. In addition, the “blood vessel dilation / vasodilatory effect in tumors” value in the series with blood vessels in tumors (listed as 22) is “no vasodilatory effects; also recorded: not changed”. Besides, in [3], the “IC50 proliferation KLE (WT)” value is “NE”. In [4], the “IC50 proliferation NCI H1975 (WT)” value was “NE”. For the same molecule, the “GFP-Lys staining (SM) of tumor sections” value in series [5] is recorded as “did not enhance GFP-Lys staining”.
